Data reported in paper PMC9607578, “Chemopreventive Effect on Human Colon Adenocarcinoma Cells of Styrylquinolines: Synthesis, Cytotoxicity, Proapoptotic Effect and Molecular Docking Analysis” (Molecules, 2022).
Read-outs that look alike come from different tables or passages of the source.

How the values were obtained:
Experiment in all cases: Cytotoxic activity, sulforhodamine B (SRB) staining
[1] = tested on: HaCaT cells; format: cell-based; conditions: Homo sapiens, read-out: HaCaT IC50
Protocol: (§1) For the biological assays, the human colon adenocarcinoma cell line SW480 and its metastatic derivative SW620 were used. Additionally, the nonmalignant cell line HaCaT was used to find the selectivity index of the compounds. All cell lines were obtained by the Colombian Plant Chemistry Group of the Faculty of Exact and Natural Sciences of the University of Antioquia (Medellín, Colombia) from the European Collection of Authenticated Cell Cultures (ECACC, Salisbury, UK). Cells were cultured in a DMEM medium with 4500 mg/L of glucose and L-glutamine (Sigma-Aldrich, Burlington, MA, USA), supplemented with 10% heat-inactivated (56 °C) horse serum (Gibco, Waltham, MA, USA), 1% penicillin/streptomycin (Sigma-Aldrich, Burlington, MA, USA), and 1% non-essential amino acids (Sigma-Aldrich, Burlington, MA, USA). For all experiments, horse serum was reduced to 3%, and the medium was supplemented with […] of transferrin, 5 ng/mL of selenium, and […] of insulin (ITS; Sigma-Aldrich, Burlington, MA, USA). All cell lines were incubated at 37 °C in a 5% CO2 atmosphere. Additionally, cell cultures were constantly monitored with PCR (Sigma-Aldrich, Burlington, MA, USA) for Mycoplasma spp. to control contamination with this agent.
(§2) To evaluate the effect of styrylquinolines on the viability of the SW480, SW620, and HaCaT cell lines, sulforhodamine B (SRB) staining was used. SRB is a colorimetric assay that indirectly estimates the number of living cells based on the ability of SRB to bind to protein components of adherent cells. Briefly, the malignant cell lines were seeded at a final density of 2.0 × 10^4 cells/well, and the nonmalignant cell line was seeded at a final density of 1.5 × 10^4 cells/well in 96-well tissue culture plates. All cell lines were incubated at 37 °C in a 5% CO2 atmosphere for 24 h to enable cell adherence, and they were then treated for 24 and 48 h with increasing concentrations (0.01–160 µM) of the styrylquinolines or their respective precursors (8-hydroxyquinoline and resveratrol), as well as 1% DMSO (negative control) and 5-FU (standard drug). After treatment, cells were fixed with trichloroacetic acid (50% v/v; PanReac AppliChem, Barcelona, Spain) for a period of one hour at 4 °C. After this, the cells were incubated for 30 min at room temperature with 0.4% (w/v) SRB (Sigma-Aldrich, Burlington, MA, USA). To remove unbound SRB, the cells were washed with 1% acetic acid, and the plates were allowed to dry at room temperature. Protein-bound SRB was solubilized with 10 mM Tris-base (Amresco, Cleveland, OH, USA) for 30 min at room temperature under constant agitation, and absorbance was measured at 490 nm in a microplate reader (Bio-Rad iMark^TM, Hercules, CA, USA). Finally, the concentration of the compound that inhibits 50% of cell growth (IC50) and the selectivity index (SI) were determined.

[2] = tested on: SW480 cells; format: cell-based, human; conditions: for IC50: Homo sapiens, read-out: SW480 IC50
Protocol: as §1, §2

[3] = tested on: SW620 cells; format: cell-based, human; conditions: for IC50: Homo sapiens, read-out: SW620 IC50
Protocol: as §1, §2

[4] = SW480, 24 h treatment, mean ± SE
[5] = SW480, 48 h treatment, mean ± SE
[6] = SW-620, 24 h treatment, mean ± SE
[7] = SW-620, 48 h treatment, mean ± SE

Row | Structure (SMILES) | IC50 ([1]; 24 h treatment, mean ± SE) [µM] | IC50 ([1]; 48 h treatment, mean ± SE) [µM] | SI (IC50 HaCaT / IC50 SW480) ([2]; 24 h treatment) | SI (IC50 HaCaT / IC50 SW480) ([2]; 48 h treatment) | IC50 [2, 4] [µM] | IC50 [2, 5] [µM] | SI (IC50 HaCaT / IC50 SW620) ([3]; 24 h treatment) | SI (IC50 HaCaT / IC50 SW620) ([3]; 48 h treatment) | IC50 [3, 6] [µM] | IC50 [3, 7] [µM] | IC50 ([1]; 24 h) [µM] | IC50 ([1]; 48 h) [µM] | IC50 ([2]; SW480, 24 h) [µM] | IC50 ([2]; SW480, 48 h) [µM] | IC50 ([3]; SW-620, 24 h) [µM] | IC50 ([3]; SW-620, 48 h) [µM]
1 | Oc1cccc(/C=C/c2ccc3cccc(O)c3n2)c1O [Compound 3b] | 57.2 ± 6.3 | 33.5 ± 4.9 | 0.8 | 0.9 | 72.6 ± 11 | 39 ± 3.6 | 1.2 | 3.4 | 49.1 ± 4.6 | 9.7 ± 2 |  |  |  |  |  | 
2 | Oc1ccc(/C=C/c2ccc3cccc(O)c3n2)c(O)c1 [Compound 3c] | 110 ± 12.7 | 38.4 ± 6.2 | 3.0 | 1.0 | 37.1 ± 3.8 | 38.4 ± 3.8 | 1.8 | 1.9 | 62 ± 4 | 20.7 ± 3.1 |  |  |  |  |  | 
3 | Oc1ccc(CCc2ccc3cccc(O)c3n2)cc1 [Compound 4a, 2-(4-hydroxyphenethyl)quinolin-8-ol] | 65.1 ± 8.4 | 69.7 ± 3 | 0.6 | 1.1 | 117 ± 5.3 | 63.2 ± 7.1 | 1.3 | 2.4 | 51 ± 5.6 | 28.9 ± 1.2 |  |  |  |  |  | 
4 | COc1cc(CCc2ccc3cccc(O)c3n2)ccc1O [Compound 4b, 2-(4-hydroxy-3-methoxyphenethyl)quinolin-8-ol] | 109 ± 8.1 | 53.6 ± 2.2 | 1.2 | 1.2 | 93.4 ± 16.6 | 43.2 ± 2 | 1.9 | 2.9 | 58.8 ± 5.5 | 18.6 ± 2 |  |  |  |  |  | 
5 | O=c1[nH]cc(F)c(=O)[nH]1 [Compound 5-FU, 5-Fluorouracil, reference compound] | > 2000 | 38.8 ± 7.2 | 2.0 |  | > 2000 | 748 ± 158 |  | 0.1 | > 2000 | 296 ± 39.7 |  |  |  |  |  | 
6 | Oc1cccc2cccnc12 [Compound 8-HQ, 8-hydroxyquinoline, reference compound] |  |  | 1.0 | 1.6 |  |  | 1.6 | 1.7 |  |  | 87.1 ± 9.4 | 61.6 ± 4.8 | 89.6 ± 11.8 | 38.8 ± 3.2 | 55.3 ± 3.6 | 36.3 ± 4.8
7 | Oc1ccc(/C=C/c2cc(O)cc(O)c2)cc1 [Resveratrol, resveratrol, reference compound] | 180 ± 7.2 | 98.2 ± 7 | 0.8 | 0.7 | 217 ± 12.8 | 136 ± 9.1 | 1.1 | 0.8 | 169 ± 3.9 | 125 ± 4.6 |  |  |  |  |  | 
